System: mixture of 9 types of Fusobacteria
Experiment: ELISA binding affinity of selected M13 bacteriophage clones to Fusobacteria (FIG. 4D)
Design: species or system Fusobacterium nucleatum
Conditions: M13 bacteriophage displaying the peptide, plate coated with Fusobacteria, M13-HRP antibody, TMB, absorbance at OD450
Procedure: A mixture of 9 types of Fusobacteria or each of the 9 types of Fusobacteria was coated on a plate, and a blocking reaction was performed using a 5% BSA solution to prevent non-specific binding. Each selected M13 bacteriophage was reacted on the plate coated with Fusobacteria. The plate was washed three times with phosphate buffer solution containing 0.1% Tween 20, and then reacted with an M13-HRP antibody. The reaction plate was washed three times with phosphate buffer solution containing 0.1% Tween 20 and reacted using a TMB color solution. The reaction was stopped with 1 M sulfuric acid (H2SO4), and the absorbance was measured at OD450 to compare the binding affinity.

PPWLADI [SEQ ID NO: 81]
binding affinity to Fusobacteria (ELISA): highest binding affinity
